Columns and labels:
518A2 = experiment: Cytotoxicity against human 518A2 cells assessed as reduction in cell viability after 96 hrs by SRB asssay; type: functional, cell-based; conditions: 518A2, 96 h
A549 = experiment: Cytotoxicity against human A549 cells assessed as reduction in cell viability after 96 hrs by SRB asssay; type: functional, cell-based; conditions: A549, 96 h
MCF7 = experiment: Cytotoxicity against human MCF7 cells assessed as reduction in cell viability after 96 hrs by SRB asssay; type: functional, cell-based; conditions: MCF7, 96 h
A-431 = experiment: Cytotoxicity against human A431 cells assessed as reduction in cell viability after 96 hrs by SRB asssay; type: functional, cell-based; conditions: A-431, 96 h
HT-29 = experiment: Cytotoxicity against human HT-29 cells assessed as reduction in cell viability after 96 hrs by SRB asssay; type: functional, cell-based; conditions: HT-29, 96 h
[1] = Cytotoxicity against human H1HeLa cells after 2 days by XTT/PMS dye based assay; type: cell-based, H1-HeLa
rhinovirus B14 [2] = experiment: Antiviral activity against rhinovirus serotype 14 infected in human H1HeLa cells after 2 days by XTT/PMS dye based assay; type: functional, cell-based; conditions: Rhinovirus B, H1-HeLa, 48 h
rhinovirus B14 [3] = experiment: Irreversible inhibition of human rhinovirus serotype 14 3C protease assessed as ratio of Kobs/I by spectrofluorimetric analysis
[4] = Thiol reactivity of the compound in DMSO/PBS buffer assessed as adduct formation by measuring half life of parent compound by 1H NMR analysis; type: physicochemical
[5] = Cysteamine reactivity of the compound in TRIS-HCL assessed as second order rate constant at 40 uM and pH 7.4
[6] = Thiol reactivity of the compound in PBS/DMSO buffer assessed as pseudo-first order rate constant for adduct formation
[7] = Glutathione reactivity of the compound in PBS buffer assessed as rate constant for 1,4-adduct formation at pH 7.4
[8] = Glutathione reactivity of the compound in DMSO and phosphate buffer assessed as second order rate constant for adduct formation
[9] = Cysteine reactivity of the compound assessed as second order rate constant by 1H NMR analysis

Structure (SMILES): C=C1C(=O)O[C@@H]2[C@H]3C(C)=CC[C@@]34O[C@@]4(C)CC[C@@H]12 [ARGLABIN]
- IC50 (518A2): 6.72 µM
- IC50 (A549): 2.21 µM
- IC50 (MCF7): 2.33 µM
- IC50 (A-431): 4.48 µM
- IC50 (HT-29): 7 µM

Structure (SMILES): CC(C)C[C@H](NC(=O)OCc1ccccc1)C(=O)N[C@@H](Cc1ccccc1)C(=O)N[C@H](/C=C/C(=O)c1ccc([N+](=O)[O-])cc1)CCC(N)=O
- CC50 at 48 h [1]: 32 µM
- EC50 (rhinovirus B14 [2]): > 32 µM
- Ratio (rhinovirus B14 [3]): 310000 M⁻¹ s⁻¹

Structure (SMILES): N#CC(C(N)=O)C(SCCO)c1ccccc1 (configuration not stated)
- t1/2 [4]: < 1 min

Structure (SMILES): CC1=CC[C@]23O[C@@]2(C)CC[C@@H]2[C@H](OC(=O)[C@H]2CN2CCSCC2)[C@@H]13
- IC50 (518A2): 13.2 µM
- IC50 (A549): 4.76 µM
- IC50 (MCF7): 13.4 µM
- IC50 (A-431): 16.9 µM
- IC50 (HT-29): 16.2 µM

Structure (SMILES): CC1=CC[C@]23O[C@@]2(C)CC[C@@H]2[C@H](OC(=O)[C@H]2CSCCO)[C@@H]13
- IC50 (518A2): 16.9 µM
- IC50 (A549): 12.8 µM
- IC50 (MCF7): 17.3 µM
- IC50 (A-431): 12.8 µM
- IC50 (HT-29): 18.6 µM

Structure (SMILES): O=C(/C=C/c1ccccc1)c1ccccc1
- K [5]: 3 M⁻¹ s⁻¹

Structure (SMILES): COc1ccc(C(=O)CC(SCCN)c2ccc(OC)c(OC)c2)c(OC)c1 (configuration not stated)
- K [5]: 0.19 M⁻¹ s⁻¹

Structure (SMILES): C=CS(=O)(=O)Nc1ccc(OC)cc1
- K [6]: 2.8 ×10⁻² /s

Structure (SMILES): N[C@@H](CCC(=O)N[C@@H](CSCCC=O)C(=O)NCC(=O)O)C(=O)O
- K [7]: 120 M⁻¹ s⁻¹

Structure (SMILES): CC(C)C[C@H](NC(=O)OCc1ccccc1)C(=O)N[C@@H](Cc1ccccc1)C(=O)N[C@H](/C=C/C(=O)O)CCC(N)=O
- CC50 at 48 h [1]: > 100 µM
- EC50 (rhinovirus B14 [2]): > 100 µM
- Ratio (rhinovirus B14 [3]): 30 M⁻¹ s⁻¹

Structure (SMILES): C/C=C/C(=O)OC
- K [8]: 0.164 M⁻¹ s⁻¹

Structure (SMILES): NC(=O)CI
- K [9]: 25 M⁻¹ s⁻¹

Structure (SMILES): CC1OC(O)CC1SC[C@@H](N)C(=O)O (some centres not stated)
- K [7]: 25 M⁻¹ s⁻¹

Structure (SMILES): CC(C)C[C@H](NC(=O)OCc1ccccc1)C(=O)N[C@@H](Cc1ccccc1)C(=O)N[C@H](/C=C1\CCOC1=O)CCC(N)=O
- CC50 at 48 h [1]: > 320 µM
- EC50 (rhinovirus B14 [2]): 5.2 µM
- Ratio (rhinovirus B14 [3]): 10900 M⁻¹ s⁻¹

Structure (SMILES): CC(C)C[C@H](NC(=O)OCc1ccccc1)C(=O)N[C@@H](Cc1ccccc1)C(=O)N[C@H](/C=C/C(=O)N1CCOC1=O)CCC(N)=O
- CC50 at 48 h [1]: > 100 µM
- EC50 (rhinovirus B14 [2]): 1.6 µM
- Ratio (rhinovirus B14 [3]): 600000 M⁻¹ s⁻¹

Structure (SMILES): COC(=O)/C=C\[C@H](CCC(N)=O)NC(=O)[C@H](Cc1ccccc1)NC(=O)[C@H](CC(C)C)NC(=O)OCc1ccccc1
- CC50 at 48 h [1]: > 320 µM
- EC50 (rhinovirus B14 [2]): 4.2 µM
- Ratio (rhinovirus B14 [3]): 2400 M⁻¹ s⁻¹

Structure (SMILES): C/C=C/C(C)=O
- K [8]: 26.7 M⁻¹ s⁻¹

Structure (SMILES): COc1ccc(C(=O)C(c2ccc([N+](=O)[O-])cc2)C(SCCN)c2ccc(OC)c(OC)c2)c(OC)c1 (configuration not stated)
- K [5]: 0.29 M⁻¹ s⁻¹

Structure (SMILES): CC1=CCCC1=O
- K [8]: 0.2 M⁻¹ s⁻¹

Structure (SMILES): C=CC(=O)OCC
- K [8]: 10.6 M⁻¹ s⁻¹

Structure (SMILES): CC(CC=O)SC[C@H](NC(=O)CC[C@H](N)C(=O)O)C(=O)NCC(=O)O (some centres not stated)
- K [7]: 0.78 M⁻¹ s⁻¹

Structure (SMILES): CC(C)C[C@H](NC(=O)OCc1ccccc1)C(=O)N[C@@H](Cc1ccccc1)C(=O)N[C@H](/C=C/C(=O)c1ccccc1)CCC(N)=O
- CC50 at 48 h [1]: 16 µM
- EC50 (rhinovirus B14 [2]): 4 µM
- Ratio (rhinovirus B14 [3]): 500000 M⁻¹ s⁻¹

Structure (SMILES): C=CC(=O)Nc1ccccc1
- K [6]: 1.6 ×10⁻⁴ /s

Structure (SMILES): N#Cc1ccc(C(C#N)C(SCCO)c2ccccc2)cc1 (configuration not stated)
- t1/2 [4]: 8.9 min

Structure (SMILES): CS(=O)(=O)/C=C/CNC(=O)c1ccc([N+](=O)[O-])cc1
- K [6]: 4 ×10⁻³ /s

Structure (SMILES): C=C(C=O)CC
- K [8]: 59.4 M⁻¹ s⁻¹

Structure (SMILES): N[C@@H](CSCCC=O)C(=O)O
- K [7]: 220 M⁻¹ s⁻¹

Structure (SMILES): COC(=O)/C=C/CNC(=O)c1ccccc1
- K [6]: 3.7 ×10⁻⁴ /s

Structure (SMILES): CCC/C=C/C/C=C/C=O
- K [8]: 22.8 M⁻¹ s⁻¹

Structure (SMILES): C=CC(=O)Nc1ccc([N+](=O)[O-])cc1
- K [6]: 8 ×10⁻² /s

Structure (SMILES): N#CC(c1ccncc1)C(SCCO)C1CC1 (configuration not stated)
- t1/2 [4]: 11.9 min

Structure (SMILES): CC1=CC[C@]23O[C@@]2(C)CC[C@@H]2[C@H](OC(=O)[C@H]2CN2CCCCC2)[C@@H]13
- IC50 (518A2): 14.3 µM
- IC50 (A549): 4.76 µM
- IC50 (MCF7): 16.9 µM
- IC50 (A-431): 18.9 µM
- IC50 (HT-29): 8.1 µM

Structure (SMILES): CC1=CC[C@]23O[C@@]2(C)CC[C@@H]2[C@H](OC(=O)[C@H]2CN(C)C)[C@@H]13
- IC50 (518A2): 5.54 µM
- IC50 (A549): 1.95 µM
- IC50 (MCF7): 1.85 µM
- IC50 (A-431): 5.19 µM
- IC50 (HT-29): 10.8 µM

Structure (SMILES): C=CS(=O)(=O)Nc1ccc([N+](=O)[O-])cc1
- K [6]: 9 ×10⁻³ /s

Structure (SMILES): CC(C)C[C@H](NC(=O)OCc1ccccc1)C(=O)N[C@@H](Cc1ccccc1)C(=O)N[C@H](/C=C/C(=O)N(C)C)CCC(N)=O
- CC50 at 48 h [1]: > 100 µM
- EC50 (rhinovirus B14 [2]): 56 µM
- Ratio (rhinovirus B14 [3]): 1300 M⁻¹ s⁻¹

Structure (SMILES): CC(CC=O)SC[C@H](N)C(=O)O (some centres not stated)
- K [7]: 8.9 M⁻¹ s⁻¹

Structure (SMILES): COc1ccc(C(=O)NC/C=C/S(C)(=O)=O)cc1
- K [6]: 2.8 ×10⁻³ /s

Structure (SMILES): CCN(CC)c1ccc(C(=O)/C=C/[C@H](CCC(N)=O)NC(=O)[C@H](Cc2ccccc2)NC(=O)[C@H](CC(C)C)NC(=O)OCc2ccccc2)cc1
- CC50 at 48 h [1]: 25 µM
- EC50 (rhinovirus B14 [2]): > 25 µM
- Ratio (rhinovirus B14 [3]): 4500 M⁻¹ s⁻¹

Structure (SMILES): C#CCOC(=O)C=C
- K [8]: 51.4 M⁻¹ s⁻¹

Structure (SMILES): C=CC(=O)OCCCC
- K [8]: 8.54 M⁻¹ s⁻¹

Structure (SMILES): C=CS(=O)(=O)Nc1ccccc1
- K [6]: 7.2 ×10⁻² /s
